Measured values from PubChem BioAssay (NCI).
“And” between values parts separate entries of the source, which are not always exact repeats. Identical values can stand only once.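 Values below derive from 48-hour exposures of cells grown in 96-well plates, with endpoints linearly interpolated between the two concentrations bracketing the appropriate inhibition level. Abbreviation: GI50, concentration required for 50% inhibition of growth. TGI is the concentration that stops growth completely.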

What was measured:
Test in all cases: growth of human tumour cells (NCI), 48 h
COLO 205 colon = test system: COLO 205 colon
HCC-2998 colon = test system: HCC-2998 colon
HCT-15 colon = test system: HCT-15 colon
HT29 colon = test system: HT29 colon
MALME-3M melanoma = test system: MALME-3M melanoma
MDA-MB-435 = test system: MDA-MB-435
MOLT-4 leukemia = test system: MOLT-4 leukemia
OVCAR-3 ovarian = test system: OVCAR-3 ovarian
RXF 393 renal = test system: RXF 393 renal
SN12C renal = test system: SN12C renal

Structure (SMILES) | GI50 (COLO 205 colon) [nM] | TGI (COLO 205 colon) [µM] | GI50 (HCC-2998 colon) [µM] | TGI (HCC-2998 colon) [µM] | GI50 (HCT-15 colon) | TGI (HCT-15 colon) [µM] | GI50 (HT29 colon) [nM] | TGI (HT29 colon) [µM] | GI50 (MALME-3M melanoma) [nM] | TGI (MALME-3M melanoma) [µM] | GI50 (MDA-MB-435) | TGI (MDA-MB-435) | GI50 (MOLT-4 leukemia) [nM] | TGI (MOLT-4 leukemia) | GI50 (OVCAR-3 ovarian) | TGI (OVCAR-3 ovarian) [µM] | GI50 (RXF 393 renal) | TGI (RXF 393 renal) | GI50 (SN12C renal) [nM] | TGI (SN12C renal) [µM]
CC(C)(C)[Si](C)(C)OC1[C@@H](O[Si](C)(C)C(C)(C)C)[C@@H](CNC(=O)NC(=O)CCl)O[C@H]1n1cnc2c(NC(=O)Nc3ccccc3)ncnc21 (some centres undefined) | 1410 | 3.5 | 0.967 | 2.06 | 1770 nM | 6.56 | 330 | 1.05 | 796 | 1.62 | 835 nM | 1.75 µM | 339 | 0.913 µM | 446 nM | 1.49 | 614 nM | 1.27 µM | 786 | 1.69
Nc1ccn(C2OC(COC(=O)C34CC5CC(CC(C5)C3)C4)C(O)C2O)c(=O)n1 (centres undefined) | – | > 100 | – | > 100 | – | > 100 | – | > 100 | – | > 100 | – | > 100 µM | – | > 100 µM | – | > 100 | – | > 100 µM | – | > 100
COc1ccc(OC)c2c1[nH]c(=O)c1c3ncccc3cn21 | 2790 | > 100 | 4.44 | > 100 | 3270 nM | > 100 | 1490 | 4.34 | 5510 | > 100 | 3850 nM | > 100 µM | 3590 | > 100 µM | 4540 nM | 18.4 | 1380 nM | 4.47 µM | 4480 | > 100
O=C(O)C(Cl)(c1ccccc1)c1ccccc1 | – | > 100 | – | > 100 | – | > 100 | – | > 100 | – | > 100 | – | > 100 µM | – | > 100 µM | – | > 100 | – | > 100 µM | – | > 100
COc1cc(Nc2nc3ccccc3cc2C(=O)Nc2ccc(F)c(F)c2)cc(OC)c1OC | 1770 | 3.78 | 4.19 | > 100 | 2910 nM | > 100 | 3590 | > 100 | 2680 | 6.41 | 2190 nM | 5.17 µM | 2040 | 6.15 µM | 2560 nM | 6.96 | 2730 nM | 7.98 µM | 3430 | > 100
CCCCCCCCCCCCCCCCCC(=O)OCC(COC(=O)CCCN)OC(=O)CCCN (centres undefined) | – | 31.1 | – | 35.9 | – | 52.3 | – | 33.5 | – | 38.2 | – | 33.2 µM | – | 70.8 µM | – | 35.3 | – | 32.5 µM | – | 31.6
CN/N=C(\C)C(CN(C)C)C(c1ccccc1)c1c(O)c2ccccc2oc1=O (centres undefined) | – | > 100 | – | > 100 | – | > 100 | – | > 100 | – | > 100 | – | > 100 µM | – | > 100 µM | – | > 100 | – | > 100 µM | – | > 100
O=C1/C(=C\c2ccccn2)c2ccccc2N1c1c(Cl)cccc1Cl | 2040 | 4.81 | 1.86 | 3.3 | 2110 nM | 5.3 | 2530 | 5.75 | 1740 | 4.89 | 1930 nM | 5.03 µM | 4200 | > 65.7 µM | 1660 nM | 3.25 | 1400 nM | 2.73 µM | 2650 | 12.5
NC(=O)c1cccc(Nc2nccc(Nc3cccc4[nH]ncc34)n2)c1 | 5500 | 17.1 | 14.7 | > 25 | > 25000 nM | > 25 | 9680 | > 25 | 24400 | > 25 | 8580 nM | > 25 µM | 12800 | > 25 µM | 8310 nM | 24.6 | 4430 nM | 16.3 µM | 8740 | > 25
CCN(CC)CCCC(C)N=C(C1=C(C(=NC(C)CCCN(CC)CC)c2cccc(OC)c2)C(=O)NC1=O)c1cccc(OC)c1 (centres undefined) | 772 | 1.56 | 1.05 | 2.2 | 1470 nM | 5.53 | 631 | 1.79 | 1110 | 2.07 | 871 nM | 1.68 µM | 1330 | 4.24 µM | 1450 nM | 4.11 | 1110 nM | 4.15 µM | 2380 | 14.3
O=C(/C=C/c1ccccc1)n1c(-c2ccc(Cl)cc2)nc2ccccc21 | 1410 | 2.78 | 1.8 | 3.45 | 1340 nM | 7.06 | 1510 | 3.71 | 1630 | 5.74 | 1110 nM | 3.04 µM | 1130 | 6.73 µM | 1110 nM | 2.64 | 1320 nM | 3.12 µM | 1390 | 2.76
Cc1nc(N2CCC3(CC2)CO[C@@H](C)[C@H]3N)c(CO)nc1Sc1ccnc(N)c1Cl | > 73400 | > 100 | > 100 | > 100 | > 100000 nM | > 100 | > 100000 | > 100 | > 100000 | > 100 | > 100000 nM | > 100 µM | > 100000 | > 100 µM | > 85300 nM | > 100 | 2530 nM | > 30.6 µM | 12200 | > 100
COc1ccc(C(=O)c2cc3c(N)c(C(=O)Nc4ccc(C)cc4)sc3nc2C)cc1 | 3470 | > 100 | 4.01 | > 100 | 1270 nM | > 100 | 2740 | 15.2 | 4460 | 39.3 | 275 nM | 1.35 µM | 3920 | > 100 µM | 2250 nM | 7.18 | 2480 nM | 9.38 µM | 6930 | > 100
Cc1ccc(C)c(C2NC(=O)c3ccccc3N2)c1 (centres undefined) | – | 7.06 | – | 31.4 | – | 50.6 | – | > 54.2 | – | > 95.7 | – | 0.832 µM | – | 31.9 µM | – | 0.997 | – | 14.3 µM | – | > 100
CN1C(=O)N[C@H]2[C@@H]3NC(=O)c4ccc(Br)n4[C@@H]3C[C@]21O | 83.2 | 1.18 | 0.13 | 1.75 | 979 nM | 8.49 | 95.6 | 2.29 | 103 | 0.731 | 156 nM | 1.72 µM | 70.4 | 0.351 µM | 121 nM | 1.85 | 56.5 nM | 0.486 µM | 106 | 2.19
O=C1C=CC(=O)c2cc(Sc3ccccc3)c(=O)ccc21 | – | 24.9 | – | 35.3 | – | 33.1 | – | 41.6 | – | 36.4 | – | 71 µM | – | 16 µM | – | 43.2 | – | 25 µM | – | 33.9
O=C(CNc1ccccc1[N+](=O)[O-])Nn1c(-c2ccccc2)nc2ccccc2c1=O | – | 53.9 | – | 26.3 | – | 44.3 | – | 33.7 | – | 40.6 | – | 60.1 µM | – | 49.8 µM | – | > 100 | – | 38.9 µM | – | 63.1
OCC(O)c1nc2ccc3[nH]ncc3c2c2c1CCCC2 (centres undefined) | 1230 | 3.43 | 1.07 | 2.89 | 1500 nM | > 50 | 1270 | > 50 | 1670 | 4.82 | 1420 nM | 4.31 µM | 1560 | > 50 µM | 1670 nM | > 50 | 612 nM | 1.45 µM | 1560 | > 50
C=C1CCC2C(C)(COC(=O)CC)C(OC(=O)CC)CCC2(C)C1C/C=C1/C(=O)OCC1OC(=O)CC (centres undefined) | 2100 | 3.96 | 4.25 | 13.9 | 1960 nM | 6 | 987 | 2.24 | 2080 | 3.99 | 1680 nM | 3.7 µM | 2620 | 11.6 µM | 1770 nM | 3.15 | 1660 nM | 3.05 µM | 2630 | 10.1
COc1ccc(-c2c3c(n(C4OC(COC(C)=O)C(OC(C)=O)C(OC(C)=O)C4OC(C)=O)c(=S)c2C#N)CC(C)(C)CC3=O)cc1 (centres undefined) | – | > 100 | – | > 100 | 40700 nM and > 100000 nM | > 100 | – | > 100 | – | > 100 | 22500 nM and 71700 nM | 65.6 µM and > 100 µM | – | 57.1 µM and > 100 µM | 40500 nM and 88700 nM | > 100 | 20200 nM and > 100000 nM | 71.8 µM and > 100 µM | – | > 100
CC[N+]1(C)CCC(O)(c2ccc(OC)cc2)C(C(=O)c2ccc(OC)cc2)C1 (centres undefined) | – | 10.6 | – | 34.8 | – | 25.3 | – | 15.7 | – | 17.2 | – | 31.1 µM | – | > 21.1 µM | – | 22.1 | – | 23.9 µM | – | 32.9
O=C(OCc1ncc(-c2ccc(C(F)(F)F)cc2)c(NC2CCCCCC2)n1)c1c(F)c(F)c(F)c(F)c1F | 18000 | 37.8 | 16.7 | 32.7 | 1940 nM | 4.78 | 13800 | 40 | 16600 | 32.6 | 15800 nM | 32.6 µM | 3420 | 11.8 µM | 4090 nM | 13.8 | 5340 nM | 21.3 µM | 12100 | 28
COc1cccc(C2c3cc4c(cc3OC(N3CCCC3)C2C)OCO4)c1O (centres undefined) | – | 10.5 | – | 46.9 | – | 38.4 | – | 14.7 | – | 58.2 | – | 4.61 µM | – | 93 µM | – | 8.02 | – | 17.4 µM | – | 40.7
Cc1cccc(C)c1NC(=O)Nc1ccc(S(N)(=O)=O)cc1 | – | > 100 | – | > 100 | – | > 100 | – | > 100 | – | > 100 | – | > 100 µM | – | > 100 µM | – | > 100 | – | > 100 µM | – | > 100
